“Also recorded” adds a separate entry of the source.
Columns and labels:
[1] = test system: MCF-7 (mammary gland carcinoma) cells; experiment: IC50 (viability) in MCF-7 cells; assay type: cell-based; details: Homo sapiens, MCF7
Description: (§1) 19 variants with different structural modifications have been made. […] In particular, it is shown that C75 causes death in multiple cancer cells with IC50 values in the 100 nM range, including breast cancers (MCF7, BT549), lung cancer (A549), colorectal cancer (HCT116) in addition to HeLa cells (cervical cancer).

[2] = test system: HCT116 (colorectal cancer) cells; experiment: IC50 (cell death) in HCT116 cells; assay type: cell-based; details: Homo sapiens, HCT-116; stated jointly for MCF7, BT549, A549, HCT116 and HeLa; HCT116 not in Table 3; read-out: IC50 values (death in multiple cancer cells)
Description: as §1

HFF1 cells = experiment: Mitotic spindle phenotype in HFF1 cells; assay type: cell-based
Description: There were more rounded mitotic cells after C75 treatment in comparison to the control. FIG. 1B) is a line graph showing the percentage of HeLa and HFF1 cells in mitosis after treatment with various concentrations of C75 for 8 hours. The bars indicate standard deviation. FIG. 1C) is a series of images showing cells that were fixed and co-stained for tubulin (microtubules) and DAPI (DNA). Treatment of HeLa cells with 300 nM C75 caused the mitotic spindles to be disorganized, while they were not affected in HFF1 cells. […] The scale bar for the cells is 10 μm. FIG. 1D) is a cartoon schematic showing the key features of a metaphase cell.
FIG. 2A) is a line graph showing the percentage of HCT116 (p53−/−) cells, A549 cells, HeLa cells and H1299 cells in mitosis after treatment with various concentrations of C75 for one population doubling time. All of the cell lines show an increase in the proportion of mitotic cells after treatment with 200 nM C75. The bars indicate standard deviation. […]
(§2) C75 was also tested for efficacy in different cancer cell lines. […] To further assess the role of C75 in affecting centrosomes, HeLa cells were treated with C75 for a short period of time (5 minutes), then C75 was removed and the cells were analyzed for spindle phenotypes (schematic in FIG. 2D). […]

[3] = test system: HFF1 (fibroblast) non-cancer cells; experiment: IC50 (viability) in HFF1 non-cancer cells; assay type: cell-based; details: Homo sapiens; HFF-1 non-cancer cells
Description: as §1

H1299 cells = experiment: Mitotic spindle phenotype in H1299 cells; assay type: cell-based, human; details: H1299, 300 nM, 6-8 hours
Description: FIG. 2A) is a line graph showing the percentage of HCT116 (p53−/−) cells, A549 cells, HeLa cells and H1299 cells in mitosis after treatment with various concentrations of C75 for one population doubling time. All of the cell lines show an increase in the proportion of mitotic cells after treatment with 200 nM C75. The bars indicate standard deviation. […] While the mitotic spindles were not dramatically altered by C75 in HFF1 cells, they were monopolar (as shown) or fragmented in the other cell types. […] The mitotic spindles were more strongly fragmented after C75 treatment in these cells vs. the cells in FIG. 2B). […] While mitotic spindles recovered bipolarity after removing nocodazole, they remained multipolar after removing C75. FIG. 2F) is a series of time-lapse images of a live HeLa cell expressing GFP:tubulin after treatment with C75 as shown in 2D) and 2E). The scale bar for all cells is 10 μm. FIG. 2G) is a schematic showing the putative target for C75. […]
as §2

A549 spheroids = experiment: A549 multicellular tumour spheroids; assay type: cell-based, human
Description: FIG. 5A) is a series of images of HeLa multicellular tumor spheroids (spheroids) treated with control (500 nM C87), empty nanoparticles, 500 nM C75 and 250 nM C75-loaded nanoparticles over 3 days. […] The scale bar for all images is 100 μm. FIG. 5B) is a series images of HeLa spheroids after three days of treatment with control (500 nM C87) or 500 nM C75. The spheroids were stained for fluorescein diacetate (to detect live cells) and propidium iodide (to detect dead cells). […] The scale bar for all images is 100 μm. FIG. 5C) is a series of images of HCT116 spheroids treated with control (1 μM C87), 500 nM C75, 1 μM C75 and 500 nM C75-loaded nanoparticles over 5 days. […] The borders of the spheroids treated with 1 μM C75 or with 500 nM C75-loaded nanoparticles became highly irregular, indicative of loss of spheroid integrity. FIG. 5D) is a series images of HCT116 spheroids after six days of treatment with control (1 μM C87) or 1 μM C75. The spheroids were stained for fluorescein diacetate (live cells) and propidium iodide (dead cells). […] FIG. 5E) is a line graph showing the growth in surface area (%) of HCT116 spheroids treated with control (1 μM C87), 500 nM C75 and 1 μM C75 after six days. FIG. 5F) is a series of images of A549 spheroids treated with control (750 nM C87), 500 nM C75, 1 μM C75 and 500 nM C75-loaded nanoparticles over 5 days. […] The scale bar for all images is 100 μm. […]

`COc1ccc(S(=O)(=O)N2Cc3ccccc3-c3sc(Br)cc32)cc1` [Compound C75] was tested, and the IC50 [1] was 0.101 µM, the IC50 [2] was roughly 0.1 µM and the mitotic spindle phenotype (HFF1 cells; HFF1, 300 nM) was “not affected; also recorded: majority of HFF1 cells had bipolar spindles”. The mitotic spindle phenotype (HFF1 cells; HFF1, 750 nM) was “disorganized”, the IC50 [3] was 0.467 µM and the mitotic spindle phenotype (H1299 cells) was “mix of monopolar, bipolar and multipolar spindles”. For the same molecule, the “effect on growth of A549 spheroids” value (A549 spheroids; 500 nM or 1 μM C75, 500 nM C75-loaded nanoparticles, over 5 days) was “regress the growth” and the “live/dead staining of spheroids (fluorescein diacetate / propidium iodide)” value (A549 spheroids; A549 spheroids, 1 μM, six days) was “fewer live cells”.

— patent US11034702B2, “Thienoisoquinolines and their derivatives for the treatment of cancer” (VALORBEC, SOCIÉTÉ EN COMMANDITE, priority 2016, dated 2021)
